pIC50: −log10 of the molar value. Structures can show the parent of a compound that is named as a salt. Where two headings read alike, the source gives them in different places.
Biological target: T1, IRAK4 (Homo sapiens, UniProt Q9NWZ3)
T1 sequence (Q9NWZ3 1-460): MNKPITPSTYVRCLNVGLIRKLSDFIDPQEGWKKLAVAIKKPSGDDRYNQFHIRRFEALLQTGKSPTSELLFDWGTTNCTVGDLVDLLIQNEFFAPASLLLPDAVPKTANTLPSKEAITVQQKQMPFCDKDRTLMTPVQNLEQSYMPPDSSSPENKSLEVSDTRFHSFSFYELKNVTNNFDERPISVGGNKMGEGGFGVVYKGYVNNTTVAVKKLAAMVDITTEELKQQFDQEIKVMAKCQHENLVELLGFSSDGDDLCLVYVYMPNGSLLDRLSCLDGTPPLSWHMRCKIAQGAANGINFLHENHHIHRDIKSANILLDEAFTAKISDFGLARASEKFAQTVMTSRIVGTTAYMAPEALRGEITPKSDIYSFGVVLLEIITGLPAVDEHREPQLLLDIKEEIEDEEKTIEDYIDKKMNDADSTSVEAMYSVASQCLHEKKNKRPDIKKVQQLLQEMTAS
Assay: biochemical
Settings: for IC50: IRAK4 Biochemical Assay (1 mM ATP, 2 h) IC50 (μM), 1 mM ATP, 2 h, 100 pM IRAK4

SMILES | pIC50 | IC50
CC(C)Oc1c(C(=O)Nc2cccc(-c3cnn(C)c3)n2)cn2cc(C34COC(C)(C3)C4)nc2c1F [Example 393, 8-Fluoro-7-isopropoxy-N-(6-(1-methyl-1H-pyrazol-4-yl)pyridin-2-yl)-2-(1-methyl-2-oxabicyclo[2.1.1]hexan-4-yl)imidazo[1,2-a]pyridine-6-carboxamide] | 10.00 | –
COc1cnc2c(NC(=O)c3cn4cc(C56COC(C)(C5)C6)nc4c(F)c3OC(C)C)cnn2c1 [Example 407, 8-Fluoro-7-isopropoxy-N-(6-methoxypyrazolo[1,5-a]pyrimidin-3-yl)-2-(1-methyl-2-oxabicyclo[2.1.1]hexan-4-yl)imidazo[1,2-a]pyridine-6-carboxamide] | 8.28 | –
CC(C)Oc1nc2nc(C34COC(C)(C3)C4)cn2cc1C(=O)Nc1ccn(C(F)(F)F)n1 [Example 362, 7-Isopropoxy-2-(1-methyl-2-oxabicyclo[2.1.1]hexan-4-yl)-N-(1-(trifluoromethyl)-1H-pyrazol-3-yl)imidazo[1,2-a]pyrimidine-6-carboxamide] | 8.09 | –
COc1cc2nc(C3CCOCC3)cn2cc1C(=O)Nc1cccnc1C(C)C [Example 187] | 6.83 | –
COc1nc(C(=O)Nc2cccc(C(F)(F)F)n2)cn2cc(C34CCOC(C)(C3)C4)nc12 [Example 238] | 8.19 | –
CC(C)Oc1nc2nc(C3C4COCC43)cn2cc1C(=O)Nc1ccn(C(F)F)n1 (stereo not drawn) [Example 395, 2-(3-Oxabicyclo[3.1.0]hexan-6-yl)-N-(1-(difluoromethyl)-1H-pyrazol-3-yl)-7-isopropoxyimidazo[1,2-a]pyrimidine-6-carboxamide] | 8.24 | –
CC(C)Oc1nc2nc(C34COC(C)(C3)C4)cn2cc1C(=O)Nc1cccc(C#N)c1F [Example 353, N-(3-cyano-2-fluorophenyl)-7-isopropoxy-2-(1-methyl-2-oxabicyclo[2.1.1]hexan-4-yl)imidazo[1,2-a]pyrimidine-6-carboxamide trifluoroacetate] | – | 0.0025 µM
O=C(Nc1cccn(C(F)F)c1=O)c1cn2cc(C3CC3)nc2cc1OC1CCCC1 [Example 458, 7-(Cyclopentyloxy)-2-cyclopropyl-N-(1-(difluoromethyl)-2-oxo-1,2-dihydropyridin-3-yl)imidazo[1,2-a]pyridine-6-carboxamide] | 8.72 | –
CC(C)Oc1nc2nc(C34COC(C)(C3)C4)cn2cc1C(=O)Nc1nc(C(F)F)cs1 [Example 367, N-(4-(difluoromethyl)thiazol-2-yl)-7-isopropoxy-2-(1-methyl-2-oxabicyclo[2.1.1]hexan-4-yl)imidazo[1,2-a]pyrimidine-6-carboxamide] | 8.10 | –
CC(C)Oc1nc(C(=O)Nc2cccn(C)c2=O)cn2cc(C34CCC(C)(C3)OC4)nc12 (stereo not drawn) [Example 341, 8-Isopropoxy-N-(1-methyl-2-oxo-1,2-dihydropyridin-3-yl)-2-(1-methyl-2-oxabicyclo[2.2.1]heptan-4-yl)imidazo[1,2-a]pyrazine-6-carboxamide] | 9.05 | –
CCOc1cc(C(=O)Nc2cccc(C(F)F)n2)cn2cc(C3CCCOC3)nc12 (stereo not drawn) [Example 52, N-(6-(difluoromethyl)pyridin-2-yl)-8-ethoxy-2-(tetrahydro-2H-pyran-3-yl)imidazo[1,2-a]pyridine-6-carboxamide] | 8.12 | –
CCC(C)Oc1nc2nc(C34COC(CF)(C3)C4)cn2cc1C(=O)Nc1cnn2cc(C)cnc12 (single isomer, unassigned) [Example 645] | 9.30 | –
CC(C)Oc1cc2nc(C34CCC(C)(C3)OC4)cn2cc1C(=O)Nc1nc(C(F)F)cs1 (stereo not drawn) [Example 516, N-(4-(difluoromethyl)thiazol-2-yl)-7-isopropoxy-2-(1-methyl-2-oxabicyclo[2.2.1]heptan-4-yl)imidazo[1,2-a]pyridine-6-carboxamide] | 8.82 | –
CC12CC(c3cn4cc(C(=O)Nc5cccn(C(F)F)c5=O)c(OC5CCOC5)cc4n3)(CO1)C2 (stereo not drawn) [Example 443, N-(1-(difluoromethyl)-2-oxo-1,2-dihydropyridin-3-yl)-2-(1-methyl-2-oxabicyclo[2.1.1]hexan-4-yl)-7-((tetrahydrofuran-3-yl)oxy)imidazo[1,2-a]pyridine-6-carboxamide] | 8.77 | –
CC12CC(c3cn4cc(C(=O)Nc5cccn(C(F)F)c5=O)c(OCC5CC(F)(F)C5)cc4n3)(CO1)C2 [Example 448, 7-((3,3-Difluorocyclobutyl)methoxy)-N-(1-(difluoromethyl)-2-oxo-1,2-dihydropyridin-3-yl)-2-(1-methyl-2-oxabicyclo[2.1.1]hexan-4-yl)imidazo[1,2-a]pyridine-6-carboxamide] | – | 0.0013 µM
CC(C)Oc1cc2nc(C34CCC(C)(C3)OC4)cn2cc1C(=O)Nc1ccc(F)cn1 (stereo not drawn) [Example 517, N-(5-fluoropyridin-2-yl)-7-isopropoxy-2-(1-methyl-2-oxabicyclo[2.2.1]heptan-4-yl)imidazo[1,2-a]pyridine-6-carboxamide] | 8.37 | –
CC(C)Oc1nc2nc(C34COC(C)(C3)C4)cn2cc1C(=O)Nc1cccnc1OC(F)F [Example 389, N-(2-(difluoromethoxy)pyridin-3-yl)-7-isopropoxy-2-(1-methyl-2-oxabicyclo[2.1.1]hexan-4-yl)imidazo[1,2-a]pyrimidine-6-carboxamide] | 8.49 | –

SMILES | pIC50 | IC50
CC(C)Oc1cc2nc(C3COCCO3)cn2cc1C(=O)Nc1cnn2cccnc12 (stereo not drawn) [Example 331, 2-(1,4-Dioxan-2-yl)-7-isopropoxy-N-(pyrazolo[1,5-a]pyrimidin-3-yl)imidazo[1,2-a]pyridine-6-carboxamide] | 8.70 | –
CC(C)Oc1cc2nc(C34CCC(C)(C3)OC4)cn2cc1C(=O)Nc1nccs1 (stereo not drawn) [Example 512, 7-Isopropoxy-2-(1-methyl-2-oxabicyclo[2.2.1]heptan-4-yl)-N-(thiazol-2-yl)imidazo[1,2-a]pyridine-6-carboxamide] | 8.05 | –
CC(C)Oc1nc2nc(C34COC(C)(C3)C4)cn2cc1C(=O)Nc1cnn2cccc(F)c12 [Example 408, N-(4-fluoropyrazolo[1,5-a]pyridin-3-yl)-7-isopropoxy-2-(1-methyl-2-oxabicyclo[2.1.1]hexan-4-yl)imidazo[1,2-a]pyrimidine-6-carboxamide] | 9.15 | –
CC(C)Oc1cc2nc(C34COC(C)(C3)C4)cn2cc1C(=O)Nc1cncc2cccnc12 [Example 320, 7-Isopropoxy-2-(1-methyl-2-oxabicyclo[2.1.1]hexan-4-yl)-N-(1,6-naphthyridin-8-yl)imidazo[1,2-a]pyridine-6-carboxamide] | 9.40 | –
C[C@@]12CC[C@@](c3cn4cc(C(=O)Nc5cccc(C(F)F)n5)cc(OC(F)F)c4n3)(CO1)C2 (single isomer, unassigned) [Example 584] | 7.81 | –
CC12CC(c3cn4cc(C(=O)Nc5cccn(C(F)F)c5=O)c(OCCOC(F)F)cc4n3)(CO1)C2 [Example 446, 7-(2-(Difluoromethoxy)ethoxy)-N-(1-(difluoromethyl)-2-oxo-1,2-dihydropyridin-3-yl)-2-(1-methyl-2-oxabicyclo[2.1.1]hexan-4-yl)imidazo[1,2-a]pyridine-6-carboxamide] | 8.34 | –
Cc1cnc2c(NC(=O)c3cn4cc(C56CCC(C)(CC5)OC6)nc4cc3OC(C)C)cnn2c1 [Example 573, 7-Isopropoxy-2-(1-methyl-2-oxabicyclo[2.2.2]octan-4-yl)-N-(6-methylpyrazolo[1,5-a]pyrimidin-3-yl)imidazo[1,2-a]pyridine-6-carboxamide] | – | 0.0018 µM
Cc1cccc(NC(=O)c2cn3cc(C45COC(C)(C4)C5)nc3cc2OC(C)C)n1 [Example 259, 7-Isopropoxy-2-(1-methyl-2-oxabicyclo[2.1.1]hexan-4-yl)-N-(6-methylpyridin-2-yl)imidazo[1,2-a]pyridine-6-carboxamide] | 9.30 | –
CC(C)Oc1nc2nc(C34COC(C)(C3)C4)cn2cc1C(=O)Nc1cccn2cnnc12 [Example 409, N-([1,2,4]triazolo[4,3-a]pyridin-8-yl)-7-isopropoxy-2-(1-methyl-2-oxabicyclo[2.1.1]hexan-4-yl)imidazo[1,2-a]pyrimidine-6-carboxamide] | 8.82 | –
CC(C)Oc1nc2nc([C@]34CC[C@](C)(C3)OC4)cn2cc1C(=O)Nc1cccn(C)c1=O (single isomer, unassigned) [Example 653] | 8.96 | –
CC(C)Oc1nc2nc(C34COC(CF)(C3)C4)cn2cc1C(=O)Nc1cccn(C(F)F)c1=O [Example 381, N-(1-(difluoromethyl)-2-oxo-1,2-dihydropyridin-3-yl)-2-(1-(fluoromethyl)-2-oxabicyclo[2.1.1]hexan-4-yl)-7-isopropoxyimidazo[1,2-a]pyrimidine-6-carboxamide] | 9.40 | –
Cn1ccc(NC(=O)c2cn3cc(C45COC(C)(C4)C5)nc3cc2OC2CCCC2)n1 [Example 449, 7-(Cyclopentyloxy)-N-(1-methyl-1H-pyrazol-3-yl)-2-(1-methyl-2-oxabicyclo[2.1.1]hexan-4-yl)imidazo[1,2-a]pyridine-6-carboxamide] | 8.82 | –
Cc1cnc2c(NC(=O)c3cn4cc(C56COC(C)(C5)C6)nc4cc3O[C@@H](C)C3CC3)cnn2c1 (single isomer, unassigned) [Example 658] | 9.22 | –
CC(C)Oc1cc2nc([C@]34CC[C@H](C3)OC4)cn2cc1C(=O)Nc1cccc(C(F)F)n1 (single isomer, unassigned) [Example 591] | 10.00 | –
CCc1ncsc1NC(=O)c1cn2cc(C3CCOCC3)nc2cc1OC [Example 104] | 7.32 | –
CC(C)Oc1nc2nc([C@@]34CC[C@@](C)(C3)OC4)cn2cc1C(=O)Nc1cnn2cccnc12 (single isomer, unassigned) [Example 612] | 9.40 | –
